Data reported in publication PMC4640567, “Cinnamic Acid Bornyl Ester Derivatives from Valeriana wallichii Exhibit Antileishmanial In Vivo Activity in Leishmania major-Infected BALB/c Mice” (PLoS ONE, 2015).

Experiments:
L. major promastigotes [1] = test: Diff-Quik staining and transmitted light microscopy, cell morphology; format: cell-based, Leishmania major; conditions: 122.7 μM
Procedure: (§1) L. major parasites harvested from blood agar cultures were washed twice with Dulbecco’s phosphate-buffered saline (DPBS; Invitrogen, Darmstadt, Germany) and centrifuged at 3.000 × g for 10 min. The pellet was suspended in RPMI 1640 medium at a final concentration of 1 × 10^8 cells/ml. Cells were treated with 1% DMSO, 122.7 μM miltefosine (1-hexadecylphorylcholine; apoptosis inducer), or 100 μM of the tested compounds 1 and 2 in a final volume of 200 μl in 96 well plates. Samples were incubated at 27°C in 5% CO2 for several time points between 30 min and 24 h. Transmitted light microscopic, transmission electron microscopic (TEM), and flow cytometric techniques were used to find phenotypic patterns caused by the treatment with the tested compounds.
After incubation for 30 min, 1 h, 2 h, 4 h, and 24 h in the presence of the tested compounds 1 and 2, promastigotes were harvested and centrifuged in a Cytospin 3 centrifuge (Shandon, Frankfurt, Germany) on microscope slides at 253 × g for 5 min at room temperature (RT). Cytospin preparations of cells were stained using the Differential Quick Stain (Diff-Quik) dye (Medion Diagnostics AG, Duedingen, Switzerland), according to the manufacturers’ protocol with some modifications. Diff-Quik stains the leishmanial nuclei and the kinetoplasts dark purple and the cytoplasm light purple allowing the observation of phenotypic changes within the parasite. Briefly, air-dried cells were fixed by dipping the slides 5 times for 3 seconds in fixative solution. Subsequently the slides were stained with Solution I following Solution II (from Diff-Quik kit) and air-dried between each staining steps. Finally, the samples were rapidly dipped once in ultra-pure water (produced by a TKA purification system apparatus, Niederelbert, Germany) to remove excessive staining solutions. The air-dried cells were analyzed by transmitted light microscopy under a 50× objective on a Nikon ECLIPSE 50i microscope equipped with a digital camera (Nikon, Tokyo, Japan). The images were processed using NIS Elements D software (Nikon).

[2] = AlamarBlue cytotoxicity, BMDM; format: cell-based; conditions: bone marrow-derived macrophages (BMDM)
Procedure: BMDM were generated in complete RPMI medium as described previously. On day six, the cytotoxicity against 2 × 10^5 cells/ml was tested at increasing concentrations of compounds 1 and 2 for 48 h. Human embryonic kidney HEK 293 T cells (ATCC, Wesel, Germany) were cultured in Dulbecco´s Modified Eagle Medium (DMEM) (Life Technologies, Darmstadt, Germany), with 10% FCS (PAA Laboratories, Germany). According to the standard operating procedures (SOP) within the Collaborative Research Center 630 (SFB 630) 2 × 10^4 HEK 293 T cells/ml were tested at increasing concentrations of compounds 1 and 2 for 48 h. Human liver carcinoma HepG2 cells (ATCC) were cultured in RPMI medium (Gibco) with 10% FCS. 1 × 10^5 cells/ml HepG2 were tested at increasing concentrations of 1 and 2 for 72 h according to the SOPs. The AlamarBlue assay was performed as described above for L. major parasites.

L. major promastigotes [3] = test: Annexin V / propidium iodide flow cytometry, cell death phenotype; format: cell-based, Leishmania major; conditions: 122.7 μM
Procedure: as §1
The loss of membrane integrity and translocation of phosphatidylserine (PS) to the outside of the cellular membrane can be determined by annexin V (AV) and propidium iodide (PI) staining. Double staining with AV-fluorescein isothiocyanate (FITC) and PI during flow cytometry analysis leads to discrimination between four populations: double negatives or alive cells (AV^-/PI^-), double positive or late necrotic/late apoptotic cells (AV^+/PI^+), PI-positive and AV-negative or early necrotic cells (AV^-/PI^+), and PI-negative and AV-positive or early apoptotic cells (AV^+/PI^-).
Parasites were harvested after incubation for 6 h, 10 h, and 24 h in the presence of compounds 1, 2 and miltefosine (Cayman Chemical Company, MI, USA), respectively, the latter serving as positive control for the induction of apoptotic cell death. DMSO was used as solvent control. Cell staining was performed using an AV-FITC Apoptosis detection kit (Sigma-Aldrich, Saint Louis, MO, USA). Cells were harvested, washed and suspended in 500 μL of binding buffer, 5 μL of AV-FITC and 10 μl of PI. The cells were incubated for 10 min in the dark at RT. Finally, stained samples were immediately analyzed by flow cytometry using MACSQuant analyzer or a flow cytometer (Becton Dickinson, San José, CA, USA).

L. major amastigotes = test system: L. major amastigotes; parameters: method as in PMID 24473204; conditions: positive control; cited from earlier work
L. major promastigotes [4] = test system: L. major promastigotes; parameters: method as in PMID 24473204; conditions: positive control; cited from earlier work
L. major promastigotes [5] = test system: L. major promastigotes; parameters: method as in PMID 25834987; conditions: cited from earlier work

CCCCCCCCCCCCCCCCOP(=O)([O-])OCC[N+](C)(C)C [Miltefosine, 1-hexadecylphorylcholine, reference compound]
Time after which morphological changes and cell disruption were promoted (L. major promastigotes [1]): 2 h
IC50 at 48 h [2]: 65.5 µM
LL: live cells (AV-/PI-) (L. major promastigotes [3]; 6 h): 35.5%
LR: early apoptotic cells (AV+/PI-) (L. major promastigotes [3]; 6 h): 8.2%
UL: early necrotic cells (AV-/PI+) (L. major promastigotes [3]; 6 h): 11.8%
UR: necrotic/late apoptotic cells (AV+/PI+) (L. major promastigotes [3]; 6 h): 44.5%
LR: early apoptotic cells (AV+/PI-) (L. major promastigotes [3]; 6 h, listed as miltefosine): 8%
UR: necrotic/late apoptotic cells (AV+/PI+) (L. major promastigotes [3]; 6 h, listed as miltefosine): 45%
LL: live cells (AV-/PI-) (L. major promastigotes [3]; 10 h): 15.9%
LR: early apoptotic cells (AV+/PI-) (L. major promastigotes [3]; 10 h): 13.2%
UL: early necrotic cells (AV-/PI+) (L. major promastigotes [3]; 10 h): 11.3%
UR: necrotic/late apoptotic cells (AV+/PI+) (L. major promastigotes [3]; 10 h): 59.6%
LL: live cells (AV-/PI-) (L. major promastigotes [3]; 24 h): 6.3%
LR: early apoptotic cells (AV+/PI-) (L. major promastigotes [3]; 24 h): 13.0%
UL: early necrotic cells (AV-/PI+) (L. major promastigotes [3]; 24 h): 5.5%
UR: necrotic/late apoptotic cells (AV+/PI+) (L. major promastigotes [3]; 24 h): 75.2%
LR: early apoptotic cells (AV+/PI-) (L. major promastigotes [3]; 24 h, listed as miltefosine): 13%
UR: necrotic/late apoptotic cells (AV+/PI+) (L. major promastigotes [3]; 24 h, listed as miltefosine): 75%
Promastigotes with affinity of the parasitic surface towards AV (L. major promastigotes [3]; within 24 h): 88%
IC50 (L. major amastigotes): 33 µM
IC50 (L. major promastigotes [4]): 36.2 µM

CC1(C)C2CCC1(C)C(OC(=O)/C=C/c1ccc(O)c(O)c1)C2 (stereo not shown) [caffeic acid bornyl ester]
Antileishmanial activity against L. major promastigotes (L. major promastigotes [5]): good antileishmanial activity
